Patent US9629921B2, “Smart pro-drugs of serine protease inhibitors” (Trustees of Tufts College, priority 2002, dated 2017)
“Also recorded” adds a separate entry of the source. Read-outs that look alike come from different tables or passages of the source.

Tests used:
DB/DB mice [1] = test system: DB/DB mice
DB/DB mice [2] = test: Fasting blood glucose in db/db (diabetic) mice; type: in vivo
Method: A dose of 1.7 mg corresponds to the 0.05 mg/kg dose.
Exendin is in phase 3 clinical trials for the treatment of type 2 diabetes (Amylin). Exendin-4 is widely regarded as the most powerful agent currently know for lowering fasting blood glucose levels and for improving glycemic control in diabetics.

Serum DPP IV [3] = target: T1, Serum DPP IV (Rattus norvegicus, UniProt P14740); test: Serum DPP IV activity in rats as a function of time after dosing; type: in vivo
T1 construct: Serum DPP IV activity in rats as a function of time; from tissue; host or cells: rat serum
T1 sequence (P14740 37-767 limits assumed): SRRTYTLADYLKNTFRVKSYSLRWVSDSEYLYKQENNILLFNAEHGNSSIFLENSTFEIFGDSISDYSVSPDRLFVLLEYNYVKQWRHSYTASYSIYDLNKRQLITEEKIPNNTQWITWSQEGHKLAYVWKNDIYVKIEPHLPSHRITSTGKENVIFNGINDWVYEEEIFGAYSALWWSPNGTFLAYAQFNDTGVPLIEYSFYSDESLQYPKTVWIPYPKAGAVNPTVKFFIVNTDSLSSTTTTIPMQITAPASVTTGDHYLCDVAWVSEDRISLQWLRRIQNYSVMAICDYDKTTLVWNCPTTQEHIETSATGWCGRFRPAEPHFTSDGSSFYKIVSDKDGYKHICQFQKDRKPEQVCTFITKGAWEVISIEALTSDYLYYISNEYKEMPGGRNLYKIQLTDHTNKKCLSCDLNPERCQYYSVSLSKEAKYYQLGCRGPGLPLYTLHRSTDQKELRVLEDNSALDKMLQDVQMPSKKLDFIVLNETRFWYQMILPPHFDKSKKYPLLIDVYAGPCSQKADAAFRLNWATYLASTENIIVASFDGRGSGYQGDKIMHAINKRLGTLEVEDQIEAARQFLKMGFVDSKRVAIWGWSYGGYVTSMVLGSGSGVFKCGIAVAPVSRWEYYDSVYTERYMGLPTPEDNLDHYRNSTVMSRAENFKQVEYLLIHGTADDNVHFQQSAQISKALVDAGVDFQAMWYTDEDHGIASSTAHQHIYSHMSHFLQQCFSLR
Method: FIG. 8 Serum DPP IV activity in rats as a function of time following a single oral dose of 0.025 mg/kg. Each bar represents the average of four rats.
Each bar represents the average of four rats.

serum DPP IV [4] = target: serum DPP IV (Mus musculus, UniProt P28843); test: In vivo inhibition of serum DPP IV in db/db mice after oral dose; conditions: for activity at 0.0025 mg/kg / activity at 0.01 mg/kg / activity at 0.025 mg/kg: mouse, iv, Diabetic-control = 100.00; for activity at 0.0025 mg/kg: read-out: In vivo inhibition of serum DPP IV, 0.0025 mg/kg; for activity at 0.01 mg/kg: read-out: In vivo inhibition of serum DPP IV, 0.01 mg/kg; for activity at 0.025 mg/kg: read-out: In vivo inhibition of serum DPP IV, 0.025 mg/kg
Chain of serum DPP IV (P28843 37-760 limits assumed): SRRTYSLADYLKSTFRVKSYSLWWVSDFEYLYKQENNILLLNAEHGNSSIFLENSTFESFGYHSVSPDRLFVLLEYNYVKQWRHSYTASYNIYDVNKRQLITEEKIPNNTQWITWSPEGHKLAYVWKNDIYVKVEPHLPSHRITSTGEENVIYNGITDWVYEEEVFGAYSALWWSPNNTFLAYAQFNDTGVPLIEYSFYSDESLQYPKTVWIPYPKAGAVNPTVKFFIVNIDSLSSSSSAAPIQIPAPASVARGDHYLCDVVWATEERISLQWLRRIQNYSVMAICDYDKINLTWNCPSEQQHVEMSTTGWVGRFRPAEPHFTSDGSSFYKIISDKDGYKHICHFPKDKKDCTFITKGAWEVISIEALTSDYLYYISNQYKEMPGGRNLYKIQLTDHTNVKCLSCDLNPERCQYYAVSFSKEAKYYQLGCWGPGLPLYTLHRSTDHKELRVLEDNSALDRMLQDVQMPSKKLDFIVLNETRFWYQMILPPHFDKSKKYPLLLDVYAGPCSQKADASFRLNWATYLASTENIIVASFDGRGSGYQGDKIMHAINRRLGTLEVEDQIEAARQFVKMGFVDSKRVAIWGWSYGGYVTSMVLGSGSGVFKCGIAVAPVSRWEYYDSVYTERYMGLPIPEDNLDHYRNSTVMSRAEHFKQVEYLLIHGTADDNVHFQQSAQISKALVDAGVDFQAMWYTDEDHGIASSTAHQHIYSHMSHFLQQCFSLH

DPP IV = DPP IV (Homo sapiens, UniProt P27487); test: In vitro DPP IV enzyme inhibition assay; inhibitors incubated at pH 2 or pH 8, then added to enzyme assay solution at pH 8.0; type: biochemical
Chain of DPP IV (P27487 whole entry, species assumed): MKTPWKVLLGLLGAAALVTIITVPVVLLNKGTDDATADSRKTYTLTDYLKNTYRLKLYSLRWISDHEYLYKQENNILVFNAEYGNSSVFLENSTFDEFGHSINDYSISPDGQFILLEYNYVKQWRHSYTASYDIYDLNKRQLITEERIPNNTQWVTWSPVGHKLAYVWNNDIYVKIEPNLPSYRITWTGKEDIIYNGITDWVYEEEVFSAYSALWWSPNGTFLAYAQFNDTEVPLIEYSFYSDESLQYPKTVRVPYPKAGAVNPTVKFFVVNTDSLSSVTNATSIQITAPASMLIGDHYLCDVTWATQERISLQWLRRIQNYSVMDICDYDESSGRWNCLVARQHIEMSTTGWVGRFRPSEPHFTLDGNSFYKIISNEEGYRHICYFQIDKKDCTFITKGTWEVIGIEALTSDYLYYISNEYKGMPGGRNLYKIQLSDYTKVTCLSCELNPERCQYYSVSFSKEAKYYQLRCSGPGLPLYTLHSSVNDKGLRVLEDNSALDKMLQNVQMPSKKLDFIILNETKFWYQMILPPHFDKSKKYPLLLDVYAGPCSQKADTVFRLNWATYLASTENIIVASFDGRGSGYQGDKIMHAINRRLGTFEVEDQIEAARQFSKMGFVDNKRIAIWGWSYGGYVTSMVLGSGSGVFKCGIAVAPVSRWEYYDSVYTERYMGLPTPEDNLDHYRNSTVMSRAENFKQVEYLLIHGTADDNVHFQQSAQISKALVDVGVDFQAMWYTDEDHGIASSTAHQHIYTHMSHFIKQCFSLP
Method: Inhibitors were incubated overnight in pH 2 or pH 8 solutions and then added directly to an enzyme assay solution at pH 8.0.
It is important to note that the x-axis in FIG. 3 refers to the concentration of the SPI, not the concentration of the released Xaa-boroPro.

Zucker rats = test: Toxicity (mortality) after oral dose in rats; type: in vivo; conditions: rats, dose equivalent to 0.35 mg/kg of Val-boroPro (FIG. 6)
male Sprague-Dawley rats [5] = test: Example 10: clinical signs and mortality after single oral administration in male rats; conditions: 2.5 mg/kg ALA-PRO boronic dose equivalents;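 note: test articles given by mouth, formulated in deionized Type I water as vehicle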
male Sprague-Dawley rats [6] = conditions: rat, in vivo
[7] = pH 2, ten minutes, read-out: IC50 Values at Ten Minutes pH 2
[8] = pH 8, ten minutes, read-out: IC50 Values at Ten Minutes pH 8

Compound: CC(C)C(NC(=O)C1CCCN1C(=O)C(N)C1CCCCC1)C(=O)N1CCCC1B(O)O (stereo not drawn) [ChgProValboroPro, Cyclohexylglycine-Proline-Valine-boroPro line]
- Glucose excursion following an oral glucose challenge (DB/DB mice [1]; DB/DB mice, OGTT four hours post oral dose, dose equivalent to 0.05 mg/kg of Val-boroPro (FIG. 9)): markedly outperforms Val-boroPro in lowering the glucose excursion
- Oral glucose tolerance test performance (DB/DB mice [1]; db/db mice, single oral dose of 0.05 mg/kg three hours before oral glucose challenge (FIG. 63)): performs better than ValboroPro
- Lowering fasting blood glucose compared with GLP-1 (DB/DB mice [2]; db/db mice, dose of 1.7 mg corresponds to the 0.05 mg/kg dose (FIG. 65)): outperforms GLP-1 in lowering fasting blood glucose
- Lowering fasting blood glucose compared with exendin-4 (DB/DB mice [2]; diabetic (db/db) mice (FIG. 66, 67)): as effective as exendin-4 in lowering fasting blood glucose; also recorded: does about what the highest dose of exendin-4 could be expected to do
- Potency, duration and safety in vivo in rats compared with ValboroPro (Serum DPP IV [3]; rats, each bar average of four animals (FIG. 62)): more potent, longer acting, and safer than ValboroPro
- Inhibition of serum DPP IV activity compared with Val-boroPro (Serum DPP IV [3]; rats, single oral dose of 0.025 mg/kg, average of four rats (FIG. 8), 0.025 mg/kg): outperforms Val-boroPro in inhibiting serum DPP IV activity; also recorded: outperforms Val-boroPro in inhibition serum DPP IV enzyme activity
- Oral activity: serum DPP IV activity in rats (Serum DPP IV [3]; three different doses given orally (FIG. 6, 7)): very orally active; also recorded: orally active
- Oral activity in mice compared with Val-boroPro (serum DPP IV [4]; db/db mice (Table 3)): outperforms Val-boroPro in mice
- activity at 0.0025 mg/kg (serum DPP IV [4]; 1 hr Post Rx-Glucose): 84.5%
- activity at 0.0025 mg/kg (serum DPP IV [4]; 4 hrs Post Rx-Glucose): 81.8%
- activity at 0.01 mg/kg (serum DPP IV [4]; 1 hr Post Rx-Glucose): 48.9%
- activity at 0.01 mg/kg (serum DPP IV [4]; 4 hrs Post Rx-Glucose): 40.7%
- activity at 0.025 mg/kg (serum DPP IV [4]; 1 hr Post Rx-Glucose): 34.7%
- activity at 0.025 mg/kg (serum DPP IV [4]; 4 hrs Post Rx-Glucose): 24.4%
- IC50 (DPP IV; pH 2, read-out: Tetrapeptide Prodrugs (IC50) pH 2): 0.065 µM
- IC50 (DPP IV; [7]): 0.07 µM
- IC50 (DPP IV; pH 8, read-out: Tetrapeptide Prodrugs (IC50) pH 8): 0.072 µM
- IC50 (DPP IV; [8]): 0.07 µM
- Mortality (rats killed) (Zucker rats): one of four

Compound: CNCC(=O)N1CC=CC1C(=O)NC(C)C(=O)N1CCCC1B(O)O (stereo not drawn) [SarDhpAlaboroPro, N-Me-Gly-3,4 dehydroproline-ALA-PRO Boronic Acid]
- Approximate Time of Sacrifice or Time Animal was Found Dead (hr post-dose) (male Sprague-Dawley rats [5]): ~4 h (sacrificed)
- IC50 (DPP IV; [7]): 0.039 µM
- IC50 (DPP IV; [8]): 0.034 µM
- Approximate Time of Sacrifice or Time Animal was Found Dead (hr post-dose) (male Sprague-Dawley rats [6]): ~7 h (found dead)

Compound: exendin-4: in phase 3 clinical trials for the treatment of type 2 diabetes (Amylin); powerful agent for lowering fasting blood glucose [reference compound]
- Effect in lowering fasting blood glucose as a function of hyperglycemia (DB/DB mice [2]; FIG. 67): The greater the hyperglycemia the greater is the effect
